According to patent US8835440B2, “Cyclic pyrimidin-4-carboxamides as CCR2 receptor antagonists for treatment of inflammation, asthma and COPD” (Boehringer Ingelheim International GmbH, priority 2008, dated 2014):

Molecular target: T1, CCR2 (Homo sapiens, UniProt P41597)
T1 construct: Membranes were prepared from THP-1 cells; endogenous in cells; host or cells: THP-1 cells (membrane preparation)
T1 sequence (P41597 1-360 isoform P41597-2): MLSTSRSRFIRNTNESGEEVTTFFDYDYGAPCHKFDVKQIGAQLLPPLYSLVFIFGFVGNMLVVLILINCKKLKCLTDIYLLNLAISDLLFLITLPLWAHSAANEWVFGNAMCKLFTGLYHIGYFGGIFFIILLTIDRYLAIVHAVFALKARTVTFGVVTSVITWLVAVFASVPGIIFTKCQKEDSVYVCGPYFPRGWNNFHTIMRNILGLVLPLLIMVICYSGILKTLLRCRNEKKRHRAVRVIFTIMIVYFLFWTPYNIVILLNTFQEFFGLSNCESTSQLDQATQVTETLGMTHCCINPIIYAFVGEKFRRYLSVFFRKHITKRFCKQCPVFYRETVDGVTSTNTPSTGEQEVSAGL
Assay: CCR2 receptor membrane binding assay ([125I]MCP-1, THP-1 cell membranes, SPA beads)
Conditions: for remaining activity at 10 µM / CCR2 % ctrl @ 10 μM: @ 10 μM test compound, THP-1 membranes; for remaining activity at 10 µM: read-out: CCR2 % ctrl @ 10 μM; for Ki: dissociation constant hKi, [125I]MCP-1 binding to THP-1 membranes
Method in brief: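 Human THP-1 monocytic cell membranes, pre-coupled to WGA-PVT SPA beads, were incubated with compound and [125I]MCP-1 (ca. 25000 cpm) in 25 mM HEPES pH 7.2, 5 mM MgCl2, 0.5 mM CaCl2, 0.2% BSA, at 1% DMSO final. Bound radioactivity was counted after 8 h, and Ki was obtained by iterative mass-action fitting.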

Row | SMILES | remaining activity at 10 µM [%] | Ki [nM] | CCR2 % ctrl @ 10 μM [% ctrl]
1 | Cc1c(C(=O)N2CCC(N3CCC(NS(C)(=O)=O)CC3)CC2)ccnc1NCc1ccc(Cl)c(Cl)c1 [Example 274] | 48 | 4420 | –
2 | Cc1c(NCC2CCCc3ccccc32)ncnc1C(=O)N1CCC(N2CCC(N(C)S(C)(=O)=O)CC2)CC1 (centres unmarked) [Example 148] | 4 | 119 | –
3 | Cc1c(NC[C@H]2CCN(c3ccccc3)C2)ncnc1C(=O)N1CCC(N2CCC(N(C)S(C)(=O)=O)CC2)CC1 [Example 156] | 8 | 18 | –
4 | COc1ccc(CCNc2ncnc(C(=O)N3CCC(N4CCC(O)CC4)CC3)c2C)cc1Cl [Example 119] | – | 1030 | 37
5 | Cc1c(Oc2ccc(C(C)(C)C)cc2)ncnc1C(=O)N1CCC(N2CCC(N(C)S(C)(=O)=O)CC2)CC1 [Example 291] | 32 | 3120 | –
6 | Cc1c(NCc2ccc(C(C)(C)C)cc2)ncnc1C(=O)N1CCCC(N2CCOCC2)CC1 (centres unmarked) [Example 162] | 43 | 3800 | –
7 | Cc1ccc(CCNc2ncnc(C(=O)N3CCC(N4CCCCC4)CC3)c2C)cc1C [Example 143] | 8 | 422 | –
8 | Cc1c(NC[C@@H]2CCN(c3ccccc3)C2)ncnc1C(=O)N1CCC(N2CCC(N(C)S(C)(=O)=O)CC2)CC1 [Example 149] | 10 | 41 | –
9 | Cc1c(NCCc2ccc(Cl)cc2)ncnc1C(=O)N1CCC(N2CCCCC2)CC1 [Example 141] | 7 | 422 | –
10 | Cc1c(NCCc2ccc(C(C)(C)C)cc2)ncnc1C(=O)N1CCC(N2CCCCC2)CC1 [Example 129] | 21 | 336 | –
11 | Cc1c(NCc2ccc(C(C)(C)C)cc2)ncnc1C(=O)N1CCC(N2CC(NS(C)(=O)=O)C2)CC1 [Example 223] | 14 | 244 | –
12 | Cc1c(NCCCCc2ccccc2)ncnc1C(=O)N1CCC(N2CCC(O)CC2)CC1 [Example 15] | 14 | 200 | –
13 | Cc1c(NCCc2ccc(Cl)c(Cl)c2)ncnc1C(=O)N1CCC(N2CCC(C(N)=O)CC2)CC1 [Example 172] | 28 | 736 | –
14 | Cc1c(NCc2ccc(C(C)(C)C)cc2)ncnc1C(=O)N1CCC(N2CCC[C@H]2CC(=O)N(C)C)CC1 [Example 217] | 54 | 4330 | –
15 | Cc1nc(NCc2ccc(C(F)(F)F)c(Cl)c2)c(C)c(C(=O)N2CCC(N3CCC(N(C)S(C)(=O)=O)CC3)CC2)n1 [Example 81] | 8 | 52 | –
16 | Cc1c(NCc2ccc(C(C)(C)C)cc2)ncnc1C(=O)N1CCC(N2CCC(c3ccccc3)C2)CC1 (centres unmarked) [Example 210] | 0 | 83 | –
17 | CCN(C1CCN(C2CCN(C(=O)c3ncnc(NCCc4ccc(Cl)c(Cl)c4)c3C)CC2)CC1)S(C)(=O)=O [Example 178] | 0 | 27 | –
18 | Cc1c(NCC2CCCN(c3ccccc3)C2)ncnc1C(=O)N1CCC(N2CCC(N(C)S(C)(=O)=O)CC2)CC1 (centres unmarked) [Example 155] | 8 | 76 | –
19 | Cc1c(NCc2ccc3occc3c2)ncnc1C(=O)N1CCC(N2CCC(O)CC2)CC1 [Example 29] | 40 | 2100 | –

Row | SMILES | remaining activity at 10 µM [%] | Ki [nM] | CCR2 % ctrl @ 10 μM [% ctrl]
20 | Cc1c(NCCc2ccc(Cl)c(Cl)c2)ncnc1C(=O)N1CCC(N2CCCC2)CC1 [Example 253] | 17 | 350 | –
21 | Cc1c(NCC2CCC(c3ccccc3)CC2)ncnc1C(=O)N1CCC(N2CCCCC2)CC1 (centres unmarked) [Example 138] | 6 | 145 | –
22 | CNC(=O)C[C@H]1CCCN1C1CCN(C(=O)c2ncnc(NCc3ccc(C(C)(C)C)cc3)c2C)CC1 [Example 214] | 20 | 711 | –
23 | CNC(=O)C1CCN(C2CCN(C(=O)c3ncnc(OCc4ccc(C(C)(C)C)cc4)c3C)CC2)CC1 [Example 300] | 8 | 136 | –
24 | Cc1c(NCCOCc2ccccc2)ncnc1C(=O)N1CCC(N2CCC(O)CC2)CC1 [Example 18] | 52 | 3500 | –
25 | Cc1c(NCCc2ccc(Cl)c(Cl)c2)ncnc1C(=O)N1CCC(N2CCC(NC(=O)C(C)C)CC2)CC1 [Example 170] | 31 | 705 | –
26 | Cc1c(NCCc2ccc(Cl)c(Cl)c2)ncnc1C(=O)N1CCC(N2CCC(NS(C)(=O)=O)CC2)CC1 [Example 168] | 9 | 51 | –
27 | Cc1cc(CNc2ncnc(C(=O)N3CCC(N4CCCCC4)CC3)c2C)ccc1F [Example 135] | 19 | 888 | –
28 | Cc1c(NCCc2ccc(Cl)c(Cl)c2)ncnc1C(=O)N1CCC(N2CCN(S(C)(=O)=O)CC2)CC1 [Example 285] | 35 | 1310 | –
29 | Cc1c(NCc2ccc(C(C)(C)C)cc2)ncnc1C(=O)N1CCC(N2CCCC2)C1 (centres unmarked) [Example 251] | 75 | 439 | –
30 | CCS(=O)(=O)N(C)C1CCN(C2CCN(C(=O)c3ncnc(NCCc4ccc(Cl)c(Cl)c4)c3C)CC2)CC1 [Example 36] | 1 | 10 | –
31 | Cc1c(NCCc2ccc(Cl)c(Cl)c2)ncnc1C(=O)N1CCC(N2CCC[C@@H](O)C2)CC1 [Example 231] | 15 | 215 | –
32 | CNS(=O)(=O)C1CCN(C2CCN(C(=O)c3ncnc(NCc4ccc(Cl)c(Cl)c4)c3C)CC2)CC1 [Example 254] | 11 | 101 | –
33 | COCCN(C)C1CCN(C(=O)c2ncnc(NCc3ccc(Cl)c(Cl)c3)c2C)CC1 [Example 181] | 58 | 3610 | –
34 | Cc1ccc(CNc2ncnc(C(=O)N3CCC(N4CCCCC4)CC3)c2C)cc1F [Example 137] | – | 634 | 14
35 | Cc1c(NCCc2ccc(Cl)c(Cl)c2)ncnc1C(=O)N1CCC(N2CCC[C@H](O)C2)CC1 [Example 229] | 39 | 1130 | –
36 | Cc1c(NCc2ccc(C(C)(C)C)cc2)ncnc1C(=O)N1CCCN(C(C)C)CC1 [Example 287] | 33 | 2550 | –
37 | Cc1c(NCc2ccc(Cl)c(Cl)c2)ncnc1C(=O)N1CCC(N2CCC(N3CCCC3=O)CC2)CC1 [Example 192] | 37 | 1450 | –
38 | Cc1c(/C=C/c2ccc(C(C)(C)C)cc2)ncnc1C(=O)N1CCC(N2CCOCC2)CC1 [Example 271] | 15 | 1610 | –

Now from value to compound:

Row | remaining activity at 10 µM [%] | Ki [nM] | CCR2 % ctrl @ 10 μM [% ctrl] | SMILES
39 | – | 169 | – | Cc1c(NCCc2cn(C)c3ccccc23)ncnc1C(=O)N1CCC(N2CCC(N(C)S(C)(=O)=O)CC2)CC1 [Example 159y]
40 | – | 28 | – | Cc1nc(NC[C@H]2CC[C@H](c3cccc(C(F)(F)F)c3)O2)c(C)c(C(=O)N2CCC(N3CCC(N(C)S(C)(=O)=O)CC3)CC2)n1 [Example 159ga]
41 | – | 22 | – | CCC1CCC(CNc2ncnc(C(=O)N3CCC(N4CCC(N(C)S(C)(=O)=O)CC4)CC3)c2C)CC1 (centres unmarked) [Example 159k]
42 | – | 18 | – | Cc1cccc([C@H]2CC[C@H](CNc3nc(C)nc(C(=O)N4CCC(N5CCC(N(C)S(C)(=O)=O)CC5)CC4)c3C)O2)c1 [Example 159ja]
43 | – | 3490 | – | Cc1c(NCC2CCCOC2)ncnc1C(=O)N1CCC(N2CCC(N(C)S(C)(=O)=O)CC2)CC1 (centres unmarked) [Example 159bc]
44 | – | 15 | – | Cc1c(NC[C@H]2C[C@@H](c3ccccc3)C2)ncnc1C(=O)N1CCC(N2CCC(N(C)S(C)(=O)=O)CC2)CC1 [Example 159yb]
45 | 6 | 169 | – | COC1CC(F)(F)CCC1NC1CCN(C(=O)c2ncnc(NCc3ccc(C(C)(C)C)cc3)c2C)CC1 (centres unmarked) [Example 228g]
46 | – | 961 | – | COC1COCCC1NC1CCN(C(=O)c2ncnc(NC3Cc4ccccc4C3)c2C)CC1 (centres unmarked) [Example 159ec]
47 | – | 14 | – | Cc1c(NCC2CCC(C(C)C)CC2)ncnc1C(=O)N1CCC(N2CCC(N(C)S(C)(=O)=O)CC2)CC1 (centres unmarked) [Example 159f]
48 | – | 19 | – | Cc1nc(NCC2CCC(c3cccc(C(F)(F)F)c3)O2)c(C)c(C(=O)N2CCC(N3CCC(N(C)S(C)(=O)=O)CC3)CC2)n1 (centres unmarked) [Example 159qa]
49 | – | 16 | – | Cc1c(NC[C@H]2C[C@@H](c3ccc(Cl)cc3)C2)ncnc1C(=O)N1CCC(N2CCC(N(C)S(C)(=O)=O)CC2)CC1 [Example 159wb]
50 | – | 6 | – | Cc1ccc([C@H]2CCC[C@@H](CNc3ncnc(C(=O)N4CCC(N5CCC(N(C)S(C)(=O)=O)CC5)CC4)c3C)C2)o1 [Example 159xb]
51 | – | 32 | – | CO[C@@H]1COCC[C@@H]1N(C)C1CCN(C(=O)c2ncnc(NCc3ccc(C(C)(C)C)cc3)c2C)CC1 [Example 228ha]
52 | – | 22 | – | Cc1cccc(C2CCC(CNc3nc(C)nc(C(=O)N4CCC(N5CCC(N(C)S(C)(=O)=O)CC5)CC4)c3C)O2)c1 (centres unmarked) [Example 159sa]
53 | – | 39 | – | Cc1ccc([C@H]2CC[C@H](CNc3ncnc(C(=O)N4CCC(N5CCC(N(C)S(C)(=O)=O)CC5)CC4)c3C)O2)cc1 [Example 159gb]
54 | – | 37 | – | Cc1c(NCc2ccc(C(C)(C)C)cc2)ncnc1C(=O)N1CCC(N2CCC(COc3ccccc3)C2)CC1 (centres unmarked) [Example 228ge]
55 | 10 | 318 | – | Cc1c(NCc2ccc(C(C)(C)C)cc2)ncnc1C(=O)N1CCC(N(C)C2CCC(F)(F)CC2)CC1 [Example 275d]
